Results reported in PMC3628895, “Cloning, expression and characterization of an ethanol tolerant GH3 β-glucosidase from Myceliophthora thermophila” (PeerJ, 2013).
Read-outs that look alike come from different tables or passages of the source.

B1: MtBgl3a (Thermothelomyces thermophilus ATCC 42464) (protein)
chain: ETPTKVPRDAPRGAAAWEAAHSSAAAALGKLSQQDKINIVTGVGWNKGPCVGNTPAISSINYPQLCLQDGPLGVRFGSSITAFTPGIQAASTWDVDLIRQRGEYMGAEFKGCGIHVQLGPVAGPLGKVPQGGRNWEGFGVDPYLTGIAMAETIEGIQSAGVQATAKHYILNEQELNRETMSSNVDDRTLHELYLWPFADAVHSNVASVMCSYNKINGTWACENDRVLNVILKQELGFPGYVMSDWNAQHSTDDAANHGMDMTMPGSDFNGGTILWGPQLDSAVNSGRVPKSRLDDMVERILAAWYLLGQDSNYPAINIGANVQGNHKENVRAVARDGIVLLKNDDGILPLKKPAKLALIGSAAVVNPQGLNSCQDQGCNKGALGMGWGSGAVNYPYFVAPYDALKARAQEDGTTVSLHNSDSTSGVANVASDADAAIVVITADSGEGYITVEGAAGDRLNLDPWHNGNELVKAVAAANKNTIVVVHSVGPIILETILATEGVKAIVWAGLPSQENGNALVDILYGLASPSGKLVYTIAKREQDYGTAVVRGDDTFPEGLFVDYRHFDKENIEPRYEFGFGLSYTNFTYADLELTSTATAGPATGETIPGGAADLWEEVATVTATITNSGGVDGAEVAQLYLTLPSSAPATPPKQLRGFAKLKLAAGASGTATFSLRRRDLSYWDTGRGQWVVPEGEFGVSVGASSRDIRLTGSFRV

Tests used:
MtBgl3a = molecular target: T1, MtBgl3a (Thermothelomyces thermophilus, UniProt G2QDN2); assay: p-nitrophenol release, absorbance […] nm; Michaelis-Menten fit (GraFit); type: biochemical
T1 construct: gene MYCTH_66804
T1 sequence (G2QDN2 18-733): B1 chain

purified protein = substrate: O=[N+]([O-])c1ccc(O[C@@H]2O[C@H](CO)[C@@H](O)[C@H](O)[C@H]2O)cc1; assay: purified protein; conditions: 100 mM citrate-phosphate pH 5.0, 40 °C
[1] = competitive, substrate p-β-NPG, pH 5.0 citrate-phosphate

Molecule | Ki (MtBgl3a; [1]) [µM] | further results
O=C(O)[C@H](O)[C@@H](O)[C@H](O)[C@H](O)CO [D-gluconic acid] | – | Ki (MtBgl3a): 22 ± 2 µM
OC[C@H]1OC(O)[C@H](O)[C@@H](O)[C@@H]1O (stereo partly drawn) [D-glucose] | 282 ± 100 | –
OC1OC[C@@H](O)[C@H](O)[C@H]1O (stereo partly drawn) [D-xylose] | 30 ± 5 | –
B1 | – | Km (purified protein): 0.39 ± 0.12 mM
